# Measurements as given in patent US8192962B2, “Processes for detecting toxic substances” (Daikin Industries, Ltd., priority 2001, dated 2012).
# Test system: Detoxification protein genes
# Experiment: DNA chip mRNA expression in yeast, detoxification protein genes (Table 8)
# Type: cell-based, Saccharomyces cerevisiae S288C
# In short: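 Values are treated/untreated fluorescence ratios from a whole-genome yeast DNA chip hybridized over 12 hours at 65° C with Cy3- or Cy5-labelled cDNA from poly(A) mRNA. Log-phase S288C yeast in YPD at 25° C had received a single toxic chemical for two hours, dosed to slow growth without killing.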
smiles,measurement,setting,value
"C[S+](C)[O-] [(15), dimethylsulfoxide]",The level of expressed mRNA in the presence of chemical substance/The level of expressed mRNA in the absence of chemical substance,yeast gene YBL064C,1.3
same,The level of expressed mRNA in the presence of chemical substance/The level of expressed mRNA in the absence of chemical substance,yeast gene YBR008C,0.8
same,The level of expressed mRNA in the presence of chemical substance/The level of expressed mRNA in the absence of chemical substance,yeast gene YBR244W,0.4
same,The level of expressed mRNA in the presence of chemical substance/The level of expressed mRNA in the absence of chemical substance,yeast gene YBR293W,3.1
same,The level of expressed mRNA in the presence of chemical substance/The level of expressed mRNA in the absence of chemical substance,yeast gene YCR083W,1.0
same,The level of expressed mRNA in the presence of chemical substance/The level of expressed mRNA in the absence of chemical substance,yeast gene YDL100C,1.0
same,The level of expressed mRNA in the presence of chemical substance/The level of expressed mRNA in the absence of chemical substance,yeast gene YDR256C,1.0
same,The level of expressed mRNA in the presence of chemical substance/The level of expressed mRNA in the absence of chemical substance,yeast gene YDR453C,2.3
same,The level of expressed mRNA in the presence of chemical substance/The level of expressed mRNA in the absence of chemical substance,yeast gene YDR513W,1.3
same,The level of expressed mRNA in the presence of chemical substance/The level of expressed mRNA in the absence of chemical substance,yeast gene YDR538W,1.0
same,The level of expressed mRNA in the presence of chemical substance/The level of expressed mRNA in the absence of chemical substance,yeast gene YER185W,1.7
same,The level of expressed mRNA in the presence of chemical substance/The level of expressed mRNA in the absence of chemical substance,yeast gene YGL013C,1.0
same,The level of expressed mRNA in the presence of chemical substance/The level of expressed mRNA in the absence of chemical substance,yeast gene YGR088W,0.7
same,The level of expressed mRNA in the presence of chemical substance/The level of expressed mRNA in the absence of chemical substance,yeast gene YGR138C,4.5
same,The level of expressed mRNA in the presence of chemical substance/The level of expressed mRNA in the absence of chemical substance,yeast gene YGR197C,1.0
same,The level of expressed mRNA in the presence of chemical substance/The level of expressed mRNA in the absence of chemical substance,yeast gene YGR209C,1.3
same,The level of expressed mRNA in the presence of chemical substance/The level of expressed mRNA in the absence of chemical substance,yeast gene YHL040C,3.4
same,The level of expressed mRNA in the presence of chemical substance/The level of expressed mRNA in the absence of chemical substance,yeast gene YHR008C,1.7
same,The level of expressed mRNA in the presence of chemical substance/The level of expressed mRNA in the absence of chemical substance,yeast gene YHR048W,0.9
same,The level of expressed mRNA in the presence of chemical substance/The level of expressed mRNA in the absence of chemical substance,yeast gene YHR053C,0.3
same,The level of expressed mRNA in the presence of chemical substance/The level of expressed mRNA in the absence of chemical substance,yeast gene YHR055C,0.5
same,The level of expressed mRNA in the presence of chemical substance/The level of expressed mRNA in the absence of chemical substance,yeast gene YJL101C,0.5
same,The level of expressed mRNA in the presence of chemical substance/The level of expressed mRNA in the absence of chemical substance,yeast gene YJR104C,1.3
same,The level of expressed mRNA in the presence of chemical substance/The level of expressed mRNA in the absence of chemical substance,yeast gene YKL026C,0.8
same,The level of expressed mRNA in the presence of chemical substance/The level of expressed mRNA in the absence of chemical substance,yeast gene YKL064W,0.7
same,The level of expressed mRNA in the presence of chemical substance/The level of expressed mRNA in the absence of chemical substance,yeast gene YKR066C,0.6
same,The level of expressed mRNA in the presence of chemical substance/The level of expressed mRNA in the absence of chemical substance,yeast gene YLL028W,3.1
same,The level of expressed mRNA in the presence of chemical substance/The level of expressed mRNA in the absence of chemical substance,yeast gene YLR043C,0.5
same,The level of expressed mRNA in the presence of chemical substance/The level of expressed mRNA in the absence of chemical substance,yeast gene YLR046C,0.8
same,The level of expressed mRNA in the presence of chemical substance/The level of expressed mRNA in the absence of chemical substance,yeast gene YML116W,1.9
same,The level of expressed mRNA in the presence of chemical substance/The level of expressed mRNA in the absence of chemical substance,yeast gene YMR038C,0.6
same,The level of expressed mRNA in the presence of chemical substance/The level of expressed mRNA in the absence of chemical substance,yeast gene YNL241C,7.0
same,The level of expressed mRNA in the presence of chemical substance/The level of expressed mRNA in the absence of chemical substance,yeast gene YNL259C,0.7
same,The level of expressed mRNA in the presence of chemical substance/The level of expressed mRNA in the absence of chemical substance,yeast gene YOL158C,0.9
same,The level of expressed mRNA in the presence of chemical substance/The level of expressed mRNA in the absence of chemical substance,yeast gene YOR153W,3.6
same,The level of expressed mRNA in the presence of chemical substance/The level of expressed mRNA in the absence of chemical substance,yeast gene YOR251C,0.6
same,The level of expressed mRNA in the presence of chemical substance/The level of expressed mRNA in the absence of chemical substance,yeast gene YOR273C,0.8
same,The level of expressed mRNA in the presence of chemical substance/The level of expressed mRNA in the absence of chemical substance,yeast gene YPR200C,0.7
